Measured values from patent publication US11447479B2, “Compounds active towards nuclear receptors” (NUEVOLUTION A/S, priority 2019, dated 2022).
pIC50: −log10 of the molar value.

Legend:
[1] = biological target: T1, RORγ (Homo sapiens, UniProt P51449); experiment: RORγ Reporter Assay (Gal4); type: cell-based; conditions: HEK293 co-transfected with RORγ LBD-Gal4 and luciferase reporter, 24 h incubation, absolute IC50; read-out: IC50
T1 construct: Gal4 (galactose-responsive transcription factor); expressed in transfected cells; host or cells: HEK293
T1 sequence (P51449 269-508 limits assumed): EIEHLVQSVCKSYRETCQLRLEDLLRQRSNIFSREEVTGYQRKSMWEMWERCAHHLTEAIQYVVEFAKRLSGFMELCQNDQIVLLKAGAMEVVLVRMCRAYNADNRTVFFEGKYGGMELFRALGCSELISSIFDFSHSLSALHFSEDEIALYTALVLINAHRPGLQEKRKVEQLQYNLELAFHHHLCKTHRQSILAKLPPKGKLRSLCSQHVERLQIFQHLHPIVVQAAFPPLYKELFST
Description: RORγ Reporter Assay (Gal4)
The HEK293 cell line is co-transfected transiently with two plasmids, one with the RORγ ligand-binding domain fused to galactose-responsive transcription factor (Gal4), and the other with the luciferase reporter gene and Gal binding sites (UAS). This construction allows to determine the RORγ activity in a cellular system through the measurement of luminescence.
A suspension of RORγ reporter cells was dispensed into plates and cultured 2 h at 37° C. and 5% CO2. Media formulation consisted in DMEM/F-12 medium (Gibco) supplemented with 10% heat inactivated FBS (Sigma-Aldrich), non-essential aminoacids (Sigma-Aldrich), 2 mM Glutamax (Gibco) and 100 U/mF penicillin (Sigma-Aldrich). Dose-response curves with compounds were prepared in 100% DMSO and further diluted […] in culture medium. Compound solutions were added to the plate containing cells (final DMSO concentration of 0.1%) and incubated for 24 h at 37° C. and 5% CO2. Luciferase detection reagent was added to each well, and relative light units […] were quantified from each assay well using a plate reading luminometer.
Values of average RFU±S.D. were computed for all treatment sets, followed by the calculations of percent-reduction of RORγ activity in response to respective test compound. The following formula was used: activity=100*[1−[x test compound/average vehicle]where the theoretical minimum reduction (0% reduction).

[2] = test system: Collagen-induced arthritis; experiment: Collagen-Induced Arthritis (CIA) study; type: in vivo; conditions: 10 mpk po bid, male DBA/1J mice
Description: Collagen-Induced Arthritis (CIA) Study Collagen-induced arthritis is an animal model of rheumatoid arthritis used to evaluate the efficacy of test compounds. CIA was induced at Washington Biotechnology Inc. (Baltimore) in male DBA/1J mice (Jackson Laboratories) by subcutaneous injection at the base of the tail with 50 μl of a bovine collagen/complete Freund's adjuvant emulsion. After 21 days, the mice were further boosted by a further subcutaneous injection of 50 μl of a collagen/incomplete Freund's adjuvant emulsion. For treatment, compound or vehicle (2% DMSO, 10% HP—β-CD in MilliQ water) was given orally twice daily at various doses selected from 3, 10, 30 mg/kg, beginning at the day of CIA induction (Prophylactic setting), or after disease initiation (at day 27, therapeutic setting). Treatment lasted until day 41, and the animals were scored three times weekly. Each paw was scored and the sum of all four scores was recorded as the Arthritic Index (AI). The maximum possible AI was 16. 0=no visible effects of arthritis; 1=edema and/or erythema of one digit; 2=edema and/or erythema of 2 joints; 3=edema and/or erythema of more than 2 joints; 4=severe arthritis of the entire paw and digits including limb deformation and ankylosis of the joint. […] At 10 mpk po bid, H6-13-2 Arthritis Index (AI) decreased with 83% of the effect of the mouse aIL-17A antibody. […]

[3] = test system: Th17 cells; experiment: Th17 assay (IL-17 in supernatants of differentiating human naive CD4+ T cells, ELISA); type: cell-based; conditions: 168 h, Th17 differentiation for seven days with test compound, IL-17 levels in supernatants by ELISA
Description: Th17 Assay (Another Suitable Assay)
The following modifications were made to the manufacturer's protocol: 1) Incubation with Biotin-Antibody Cocktail and Anti-Biotin MicroBeads was prolonged to 30 minutes, and 2) Cells were washed with 40 mL of Miltenyi buffer. Differentiation of Th17 cells in anti-CD3 (BD Pharmingen, 5 μg/ml) coated 96-well plates (400,000 cells/well, 160 μl RPMI1640+10% Fetal Bovine Serum) containing 5 μg/ml anti-CD28 (BD Pharmingen), 10 ng/ml IL-2 (R&D Systems), 2.5 ng/ml TGFβ-1 (R&D Systems), 20 ng/ml IL-1β (R&D Systems), 20 ng/ml IL-6 (R&D Systems), 30 ng/ml IL-23 (R&D Systems), 2.5 μg/ml anti-IL-4 (R&D Systems) and 1 μg/ml anti-IFNγ (R&D Systems) and with test compound during the entire differentiation (or vehicle, 0.1% DMSO for control). Test compounds were tested in triplicates, diluted 1000-fold in medium (final DMSO concentration is 0.1%). Incubated for seven days at 37° C., 5% CO2, 95% humidity, and 2-fluoro-4′-[[4-(4-pyridinylmethyl)-1-piperazinyl]methyl]-α,α-bis(trifluoromethyl)-[1,1′-biphenyl]-4-methanol (SR2211 Calbiochem, Cat. No. 557353) was used as positive control. As negative control, cells were differentiated into Th0 using 5 μg/ml anti-CD28 (BD Pharmingen), 10 ng/ml IL-2 (R&D Systems), 2 μg/ml anti-IL4 (R&D Systems) and 2 μg/ml anti-IFNγ (R&D Systems) are negative control. IL-17 levels in supernatants were measured with ELISA (R&D Systems).

[4] = test system: plasma IL-17A; experiment: In vivo IL-17A induction in anti-CD3 model in mice; conditions: oral gavage twice daily day 0 to day 3, plasma IL-17A by ELISA, C57BL/6JRj mice
Description: In Vivo IL-17A Induction in Anti-CD3 Model in Mice
Male C57BL/6JRj mice (7 week old) were purchased from Janvier Labs and housed at the animal facilities of Almirall throughout the study. Animals were allowed to condition for 5 days in their new environment at 22° C.±2° C., 55%±10% relative humidity and 12 h:12 h light:dark cycles. Animals were housed in polycarbonate cages, with free access to water and non-purified stock diet (2014 Teklad Global 14% Protein Rodent Maintenance Diet, Envigo) during the full course of the studies. Care of animals was undertaken in compliance with the European Committee Directive 2010/63/EU, and the Catalan and Spanish law. […]
Plasma levels of IL-17A were measured by ELISA (R&D Systems) according to the manufacturer's instruction. Results were calculated as the percentage of reduction of plasma IL-17A versus the difference between non-induced and anti-CD3e induced groups through the formula: inhibition=100*[1−[(x−mean non-induced)/(mean control vehicle−mean non-induced)]]. The IL-17A inhibition for each treatment can be expressed as the mean for each treatment group±S.E.M. Statistical analysis of data were conducted with one-way ANOVA followed by Dunnett's multiple comparisons test when appropriate. […]

SMILES	pIC50 [1]	Arthritis Index (AI) decrease as % of the effect of the mouse aIL-17A antibody [2] [%]	pIC50 [3]	Inhibition of IL-17A (%) at 3 mg/kg [4] [%]
NC(=O)CN1CCC(CNc2ncnc(N3CCOC[C@@H]3c3ccc(C(F)(F)F)cn3)c2F)C(F)(F)C1 (single isomer, unassigned) [Example H6-11-2, 2-((R*)-3,3-difluoro-4-(((5-fluoro-6-((S)-3-(5-(trifluoromethyl)pyridin-2-yl)morpholino)pyrimidin-4-yl)amino)methyl)piperidin-1-yl)acetamide]	7.18	61	7.09	–
NC(=O)CN1CC[C@H](CNc2ncnc(N3CCOC[C@@H]3c3ccc(C(F)(F)F)cn3)c2F)[C@@H](F)C1 (single isomer, unassigned) [Example H6-13-2, 2-((3R*,4R*)-3-fluoro-4-(((5-fluoro-6-((S)-3-(5-(trifluoromethyl)pyridin-2-yl)morpholino)pyrimidin-4-yl)amino)methyl)piperidin-1-yl)acetamide]	7.27	83	7.03	–
NC(=O)CN1CC[C@H](CNc2ncnc(N3CC(F)(F)C[C@@H]3c3ccc(C(F)(F)F)cc3)c2F)[C@@H](O)C1 (single isomer, unassigned) [Example H6-17-1, 2-((3R*,4R*)-4-(((6-((R)-4,4-difluoro-2-(4-(trifluoromethyl)phenyl)pyrrolidin-1-yl)-5-fluoropyrimidin-4-yl)amino)methyl)-3-hydroxypiperidin-1-yl)acetamide]	7.59	–	–	67
